From patent publication US7417156B2, “Orally active, antimalarial, anticancer, artemisinin-derived trioxane dimers” (Johns Hopkins University, priority 2002, dated 2008)
Where “and” joins values, the source holds several entries; their conditions need not be identical. Equal entries are not always repeated. Structures can show the parent of a compound that is named as a salt. Where two headings read alike, the source gives them in different places.

Legend:
malaria parasite = test: Efficacy Study Blood Schizontocidal Activity; format: in vivo; parameters: ED90: unit not given here
male CD-1 mice = test: Acute toxicity study, single intraperitoneal injection; details: single ip, male CD-1 mice
Description: Each compound was dissolved in DMSO (Mallinkrodt Lot No. V18H15) to achieve a concentration of 200 mg/ml, and then 3 parts sesame oil (Spectrum Lot No. M10656) was added to make a working concentration of 50 mg/ml for dose administration. Stability, strength, and uniformity of the test articles in the dose formulations were not determined for this study.
Forty-two CD1 male mice purchased from Charles River Laboratories (Wilmington, Mass.) were used in the study. Mice were quarantined for 3 days prior to initiation of the study.
Mice were weighed and randomized into treatment groups on the day prior to the first dose administration. Due to limitations in the amount of available test materials, fewer mice in 1000 mg/kg groups were treated than specified in the protocol. The numbers of animals intended to be used and actually used with each compound at each dose level are shown in the table below; the only differences are in the high-dose groups.
Surviving animals were sacrificed on Day 8 and blood was collected for clinical pathology evaluations.
Mortality and morbidity were checked twice daily on weekdays and once daily on the weekend, see Table VI. Animals were weighed daily and prior to necropsy.

[1] = tested on: P. berghei NY malaria parasite; test: Antimalarial efficacies in vivo in mice
Excerpt: Neither overt toxicity nor behavioral modification was observed due to drug administration in any of these mouse experiments.

[2] = tested on: chloroquine-sensitive P. falciparum (NF54); test: Antimalarial activity in vitro, [3H]hypoxanthine incorporation; format: cell-based
[3] = Stability in air (room temperature; accelerated aging at 60° C.); format: physicochemical
Excerpt: The next step, shown in FIG. 2, in the production of the novel meso trioxane dimer 3 involves the substitution of the acetoxy group from the C-10 acetate 2 product to form the meso trioxane dimer 3 product. Inspiration for this bis-allylation of C-10 acetate 2 was based on the pioneering trioxane mono-allylations of Ziffer (Pu, Y. M.; Ziffer, H., Synthesis and Antimalarial Activities of 12β-Allyldeoxoartemisinin. J. Med. Chem. 1995, 38, 613-616) and O'Neill (O'Neill, et al., J. Med. Chem. 1999, 42, 5487-5493; and O'Neill, P. M., et al., J. Chem. Soc., Perkin Trans. 2001, 1, 2682-2689.) using allylsilane and based also on allylic bis-silane chemistry, see Rychnovsky, S. D., et. al., Tetrahedron Lett. 1999, 40, 41-44. The requisite allylic bis-silane is easily prepared in one step from the corresponding commercial allylic dichloride (Shown in FIG. 2); in the presence of fresh tin tetrachloride, the allylic bis-silane converts acetate 2 on gram scale into meso dimer 3, characterized by ^1H NMR spectroscopy as done before in structurally related trioxanes. This double substitution reaction undoubtedly proceeds sequentially via initial monoallylation, producing an intermediate C-10 allylic silane that then reacts with another molecule of trioxane acetate 2 to form the product dimer 3. […]

[4] = rat liver microsomes; cited from earlier work
60 cell line panel = format: cell-based; details: leukemia cell line RPM 1-8226, melanoma cell line SK-MEL-5, renal cancer cell line ACHN
P. berghei = details: P. berghei-infected mice; cited from earlier work
[5] = tested on: Ehrlich ascites tumor (EAT) cells; details: MTT assay; cited from earlier work
[6] = Table I, NF54 strain, read-out: IC50

C[C@H]1[C@H](OC(=O)CCC(=O)[O-])O[C@@H]2O[C@@]3(C)CC[C@H]4[C@H](C)CC[C@@H]1[C@@]24OO3.[Na+] [Sodium Artesunate, sodium artesunate, reference compound]
ED50 (malaria parasite; Route: IV): 5 mg/kg | ED90 (malaria parasite; Route: IV): 40.0 | ED50 (malaria parasite; Route: PO): 6 mg/kg | ED90 (malaria parasite; Route: PO): 60.0 | Mortality (male CD-1 mice; 125 mg/kg): No death | Mortality (male CD-1 mice; 250 mg/kg): 1/3 dead | Mortality (male CD-1 mice; 500 mg/kg): 3/3 dead | ED50 ([1]; route PO): 10.0 mg/kg × 4 and 5.5 mg/kg × 4 | ED90 ([1]; route PO): 39.0 mg/kg × 4 and 70.0 mg/kg × 4 | % Parasite Supression at 10 mg/kg ([1]; route PO): 52.8% and 50.9%

CC1CCC2C(C)C(OC(=O)CN(C)C)OC3OC4(C)CCC1C32OO4 (stereo not drawn) [Compound 32, α-dihydroartemisinin dimethylglycinate]
IC50 [2, 6]: 1.1 nM

C=C(CC1OC2OC3(C)CCC4C(C)CCC(C1C)C24OO3)CC1OC2OC3(C)CCC4C(C)CCC(C1C)C24OO3 (stereo not drawn) [Compound 3, trioxane isobutene dimer]
stability in air and light in words [3]: stable in air and light at room temperature for at least six months | IC50 ([2]; read-out: IC50): 24 nM

CC1CCC2C(C)C(CC(O)(COC(=O)c3ccc[n+]([O-])c3)CC3OC4OC5(C)CCC6C(C)CCC(C3C)C46OO5)OC3OC4(C)CCC1C32OO4 (stereo not drawn) [Compound 23, bis-trioxane vicinal diol nicotinate N-oxide]
IC50 [2]: sub-nanomolar | IC50 [2, 6]: 0.4 nM

CCOC(=O)OCC(CC1OC2OC3(C)CCC4C(C)CCC(C1C)C24OO3)CC1OC2OC3(C)CCC4C(C)CCC(C1C)C24OO3 (stereo not drawn) [Compound 37, bis-trioxane primary alcohol ethyl carbonate]
IC50 [2, 6]: 2.8 nM

CC1CCC2C(C)C(CC(O)CC3OC4OC5(C)CCC6C(C)CCC(C3C)C46OO5)OC3OC4(C)CCC1C32OO4 (stereo not drawn) [Compound 17, bis-trioxane secondary alcohol]
IC50 [2]: below one nM | IC50 [2, 6]: 0.66 nM

CCO[C@H]1O[C@@H]2O[C@@]3(C)CC[C@H]4[C@H](C)CC[C@@H]([C@H]1C)[C@@]24OO3 [arteether]
conversion into dihydroartemisinin [4]: rapidly converted

CC1CCC2C(C)C(OC(=O)c3cc[n+]([O-])cc3)OC3OC4(C)CCC1C32OO4 (stereo not drawn) [Compound 33, α-dihydroartemisinin isonicotinate N-oxide]
IC50 [2, 6]: 0.81 nM

CC1CCC2C(C)C(CC(CC3OC4OC5(C)CCC6C(C)CCC(C3C)C46OO5)OC(=O)c3ccc[n+]([O-])c3)OC3OC4(C)CCC1C32OO4 (stereo not drawn) [Compound 25, bis-trioxane secondary alcohol nicotinate N-oxide]
IC50 [2]: sub-nanomolar | IC50 [2, 6]: 0.31 nM

C[C@@H]1CC[C@H]2[C@@H](C)C(CC3(CC4OC5O[C@]6(C)CC[C@H]7[C@H](C)CC[C@@H]([C@H]4C)C57OO6)CO3)OC3O[C@]4(C)CCC1C32OO4 (stereo partly drawn) [Compound 6, bis-trioxane epoxide]
growth inhibition in words (60 cell line panel): less inhibitory | IC50 [2, 6]: 2.8 nM

CC1CCC2C(C)C(CC3(CC4OC5OC6(C)CCC7C(C)CCC(C4C)C57OO6)COC(=O)O3)OC3OC4(C)CCC1C32OO4 (stereo not drawn) [Compound 41, bis-trioxane vicinal diol cyclic carbonate]
IC50 [2]: sub-nanomolar | IC50 [2, 6]: 0.59 nM

C[C@H]1[C@@H](O[C@H]2O[C@@H]3O[C@@]4(C)CC[C@H]5[C@H](C)CC[C@@H]([C@H]2C)[C@@]35OO4)O[C@@H]2O[C@@]3(C)CC[C@H]4[C@H](C)CC[C@@H]1[C@@]24OO3 [II-7, dihydroartemisinin condensation by-product]
SD90 (P. berghei): 10 mg/kg | IC50 [5]: 1400 nM

COC(=O)OCC(CC1OC2OC3(C)CCC4C(C)CCC(C1C)C24OO3)CC1OC2OC3(C)CCC4C(C)CCC(C1C)C24OO3 (stereo not drawn) [Compound 36, bis-trioxane primary alcohol methyl carbonate]
IC50 [2, 6]: 1.7 nM

CC1CCC2C(C)C(CC(O)(CC3OC4OC5(C)CCC6C(C)CCC(C3C)C46OO5)CS(=O)(=O)N(C)C)OC3OC4(C)CCC1C32OO4 (stereo not drawn) [Compound 40, bis-trioxane tertiary alcohol N,N-dimethylsulfonamide]
IC50 [2]: sub-nanomolar | IC50 [2, 6]: 0.73 nM

CC1CCC2C(C)C(CC(CC3OC4OC5(C)CCC6C(C)CCC(C3C)C46OO5)OC(=O)c3cc[n+]([O-])cc3)OC3OC4(C)CCC1C32OO4 (stereo not drawn) [Compound 24, bis-trioxane secondary alcohol isonicotinate N-oxide]
IC50 [2]: sub-nanomolar | IC50 [2, 6]: 0.42 nM

CC1CCC2C(C)C(CC(O)(COCC(=O)O)CC3OC4OC5(C)CCC6C(C)CCC(C3C)C46OO5)OC3OC4(C)CCC1C32OO4 (stereo not drawn) [Compound 21, bis-trioxane β-hydroxy O-acetic acid]
IC50 [2, 6]: 4.4 nM

CC1CCC2C(C)C(CC3(CC4OC5OC6(C)CCC7C(C)CCC(C4C)C57OO6)COS(=O)(=O)O3)OC3OC4(C)CCC1C32OO4 (stereo not drawn) [Compound 42, bis-trioxane vicinal diol cyclic sulfate]
IC50 [2, 6]: 19 nM

CC1CCC2C(C)C(CC(COC(=O)c3ccncc3)CC3OC4OC5(C)CCC6C(C)CCC(C3C)C46OO5)OC3OC4(C)CCC1C32OO4 (stereo not drawn) [Compound 8b, bis-trioxane primary alcohol isonicotinate]
IC50 [2, 6]: 1.7 nM

C[C@@H]1CC[C@H]2[C@@H](C)C(CC(=O)CC3OC4O[C@]5(C)CC[C@H]6[C@H](C)CC[C@@H]([C@H]3C)C46OO5)OC3O[C@]4(C)CCC1C32OO4 (stereo partly drawn) [Compound 7, bis-trioxane ketone]
growth inhibition in words (60 cell line panel): less inhibitory | IC50 [2]: below one nM | antimalarial potency in vitro relative to artemisinin [2]: 10 times | IC50 [2, 6]: 0.91 nM

CC1CCC2C(C)C(CC(O)(COC(=O)c3cc[n+]([O-])cc3)CC3OC4OC5(C)CCC6C(C)CCC(C3C)C46OO5)OC3OC4(C)CCC1C32OO4 (stereo not drawn) [Compound 18, bis-trioxane vicinal diol isonicotinate N-oxide]
IC50 [2]: sub-nanomolar | IC50 [2, 6]: 0.34 nM

COP(=O)(OC)OCC(CC1OC2OC3(C)CCC4C(C)CCC(C1C)C24OO3)CC1OC2OC3(C)CCC4C(C)CCC(C1C)C24OO3 (stereo not drawn) [Compound 27, bis-trioxane primary alcohol dimethyl phosphoric acid triester]
IC50 [2]: sub-nanomolar | IC50 [2, 6]: 0.48 nM

CC1CCC2C(C)C(CC(O)(CC(=O)O)CC3OC4OC5(C)CCC6C(C)CCC(C3C)C46OO5)OC3OC4(C)CCC1C32OO4 (stereo not drawn) [Compound 35, bis-trioxane tertiary alcohol carboxylic acid]
IC50 [2, 6]: 2 nM

CCOP(=O)(OCC)OCC(CC1OC2OC3(C)CCC4C(C)CCC(C1C)C24OO3)CC1OC2OC3(C)CCC4C(C)CCC(C1C)C24OO3 (stereo not drawn) [Compound 26, bis-trioxane primary alcohol diethyl phosphoric acid triester]
IC50 [2]: sub-nanomolar | IC50 [2, 6]: 0.74 nM

COS(=O)(=O)CC(O)(CC1OC2OC3(C)CCC4C(C)CCC(C1C)C24OO3)CC1OC2OC3(C)CCC4C(C)CCC(C1C)C24OO3 (stereo not drawn) [Compound 38, bis-trioxane tertiary alcohol methyl sulfonate]
IC50 [2, 6]: 200 nM

CC1CCC2C(C)C(CC(COC(=O)c3ccc[n+]([O-])c3)CC3OC4OC5(C)CCC6C(C)CCC(C3C)C46OO5)OC3OC4(C)CCC1C32OO4 (stereo not drawn) [Compound 15, bis-trioxane primary alcohol nicotinate N-oxide]
IC50 [2]: sub-nanomolar | IC50 [2, 6]: 0.58 nM

C[C@@H]1[C@H](OCc2ccc(C(=O)O)cc2)O[C@@H]2O[C@@]3(C)CC[C@@H]4[C@@H](C)CC[C@@H]1[C@]24OO3 [Artelinic Acid, artelinic acid, reference compound]
ED50 ([1]; route IV): 11.0 mg/kg × 4 and 5.6 mg/kg × 4 | ED90 ([1]; route IV): 25.0 mg/kg × 4 and 43.0 mg/kg × 4 | % Parasite Supression at 10 mg/kg ([1]; route IV): 54.7% and 42.4%

CC1=CO[C@@H]2O[C@]3(C)CC[C@H]4[C@H](C)CC[C@@H]1[C@@]24OO3 [III]
activity in words (P. berghei): inactive
